pIC50: −log10 of the molar value.
Key:
[1] = Displacement of [3H](+)1-DTG from sigma-2 receptor expressed in rat cerebral cortex membranes after 2 hrs by liquid scintillation spectroscopy; type: cell membranes, Membrane
OVCAR-5 = experiment: Growth inhibition of human OVCAR5 cells after 48 hrs by SRB assay; type: functional; conditions: OVCAR-5, 48 h; for CC50: read-out: LC50 (the source's name)
BXPC-3 = experiment: Growth inhibition of human BxPC3 cells after 48 hrs by SRB assay; type: functional; conditions: BXPC-3, 48 h
HCT-116 = experiment: Growth inhibition of human HCT116 cells after 48 hrs by SRB assay; type: functional; conditions: HCT-116, 48 h; for CC50: read-out: LC50 (the source's name)
SF-268 = experiment: Growth inhibition of human SF268 cells after 48 hrs by SRB assay; type: functional; conditions: SF-268, 48 h; for CC50: read-out: LC50 (the source's name)
MIA PaCa-2 = experiment: Growth inhibition of human MIAPaCa2 cells after 48 hrs by SRB assay; type: functional; conditions: MIA PaCa-2, 48 h; for CC50: read-out: LC50 (the source's name)
NCI-H460 = experiment: Growth inhibition of human NCI-H460 cells after 48 hrs by SRB assay; type: functional; conditions: NCI-H460, 48 h
MCF7 = experiment: Growth inhibition of human MCF7 cells after 48 hrs by SRB assay; type: functional; conditions: MCF7, 48 h; for CC50: read-out: LC50 (the source's name)
[2] = Displacement of [3H]BTX-B from Na+ channel site 2 after 60 mins by liquid scintillation spectroscopy
[3] = target: Sigma non-opioid intracellular receptor 1 (Homo sapiens, UniProt Q99720); experiment: Displacement of [3H](+)pentazocine from sigma-1 receptor expressed in human Jurkat cell membranes after 2 hrs by liquid scintillation spectroscopy
[4] = Selectivity ratio of IC50 for human sigma-1 receptor to IC50 for rat sigma-2 receptor
IGROV-1 = experiment: Growth inhibition of human IGROV1 cells after 48 hrs by SRB assay; type: functional; conditions: IGROV-1, 48 h
LOX IMVI = experiment: Growth inhibition of human LOXIMVI cells after 48 hrs by SRB assay; type: functional
NHDF = experiment: (§1) Growth inhibition of NHDF cells after 48 hrs by SRB assay; type: cell-based; conditions: human, nhdf, 48 h
[5] = as §1; type: cell-based; conditions: human, NHDF cells
[6] = (§2) Growth inhibition of HUVEC cells after 48 hrs by SRB assay; type: cell-based; conditions: human, HUVEC cells
HUVEC = experiment: as §2; type: cell-based; conditions: human, huvec, 48 h
DMS-114 = experiment: Growth inhibition of human DMS114 cells after 48 hrs by SRB assay; type: functional; conditions: DMS-114, 48 h
SK-HEP1 = experiment: Growth inhibition of human SKHEP1 cells after 48 hrs by SRB assay; type: functional; conditions: SK-HEP1, 48 h; for CC50: read-out: LC50 (the source's name)
[7] = Growth inhibition of human MSC cells after 48 hrs by SRB assay; type: cell-based
HCT-15 = experiment: Growth inhibition of human HCT15 cells after 48 hrs by SRB assay; type: functional; conditions: HCT-15, 48 h
HL-60(TB) = experiment: Growth inhibition of human HL-60(TB) cells after 48 hrs by SRB assay; type: functional; conditions: HL-60, 48 h
[8] = read-out: LC50 (the source's name)

Sequence of Sigma non-opioid intracellular receptor 1 (Q99720 whole entry): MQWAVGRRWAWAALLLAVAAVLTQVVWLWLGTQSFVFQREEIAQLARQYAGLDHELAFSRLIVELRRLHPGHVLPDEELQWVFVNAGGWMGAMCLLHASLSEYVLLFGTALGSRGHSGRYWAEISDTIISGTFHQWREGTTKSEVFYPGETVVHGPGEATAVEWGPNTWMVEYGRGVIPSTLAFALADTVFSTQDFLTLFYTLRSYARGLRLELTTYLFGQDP

## c1ccc(C(c2ccc(N3CCN(C4CCCCC4)CC3)cc2)C23CC4CC(CC(C4)C2)C3)cc1 (stereo unspecified)
[1]
  pIC50: 7.01
OVCAR-5
  GI50: 55.4 µM
  TGI: 98.2 µM
  CC50: 100 µM
BXPC-3
  GI50: 8.58 µM
  LC50: 100 µM
  TGI: 76.8 µM
HCT-116
  GI50: 22.2 µM
  TGI: 100 µM
  CC50: 100 µM
SF-268
  GI50: 53.1 µM
  TGI: 99.8 µM
  CC50: 100 µM
MIA PaCa-2
  GI50: 20.2 µM
  TGI: 66.1 µM
  CC50: 100 µM
NCI-H460
  GI50: 47.3 µM
  LC50 (concentration killing 50% of cells): 100 µM
  TGI: 100 µM
MCF7
  GI50: 8.7 µM
  TGI: 55 µM
  CC50: 100 µM
[2]
  pIC50: 6.15
[3]
  pIC50: 9.57
[4]
  Ratio IC50: 360

## c1ccc(C(c2ccc(N3CCNCC3)cc2)C23CC4CC(CC(C4)C2)C3)cc1 (stereo unspecified)
IGROV-1
  GI50: 3.32 µM
  TGI: 6.1 µM
IGROV-1; [8]
  CC50: 8.89 µM
[1]
  pIC50: < 6.00
LOX IMVI
  GI50: 2.79 µM
  LC50 (concentration killing 50% of cells): 8.11 µM
  TGI: 5.45 µM
NHDF
  LC50: 9.49 µM
  TGI: 6.23 µM
[5]
  GI50 at 48 h: 2.97 µM
OVCAR-5
  GI50: 4.27 µM
  TGI: 7.33 µM
  CC50: 10.4 µM
[6]
  GI50 at 48 h: 4.8 µM
HUVEC
  LC50: 100 µM
  TGI: 7.62 µM
BXPC-3
  GI50: 3.61 µM
  LC50: 9.05 µM
  TGI: 6.33 µM
DMS-114
  GI50: 3.97 µM
  TGI: 6.51 µM
DMS-114; [8]
  CC50: 9.05 µM
SK-HEP1
  GI50: 3.91 µM
  TGI: 6.48 µM
  CC50: 9.04 µM
HCT-116
  GI50: 3.67 µM
  TGI: 6.54 µM
  CC50: 9.41 µM
[7]; MSC cells
  GI50 at 48 h: 4.87 µM
[7]; msc, 48 h
  LC50: 9.33 µM
  TGI: 7.1 µM
SF-268
  GI50: 3.45 µM
  TGI: 6.11 µM
  CC50: 8.76 µM
NCI-H460
  GI50: 3.74 µM
  LC50 (concentration killing 50% of cells): 9.7 µM
  TGI: 6.72 µM
HCT-15
  GI50: 3.4 µM
  LC50: 8.9 µM
  TGI: 6.15 µM
HL-60(TB)
  GI50: 5.97 µM
  LC50: 100 µM
  TGI: 9.92 µM
MCF7
  GI50: 2.49 µM
  TGI: 5.59 µM
  CC50: 8.68 µM
[2]
  pIC50: 5.92
[3]
  pIC50: 7.91

## c1ccc(CN2CCN(c3ccc(C(c4ccccc4)C45CC6CC(CC(C6)C4)C5)cc3)CC2)cc1 (stereo unspecified)
[1]
  pIC50: 6.92
OVCAR-5
  GI50: 84.3 µM
  TGI: 100 µM
  CC50: 100 µM
[6]
  GI50 at 48 h: 76.8 µM
HUVEC
  LC50: 100 µM
  TGI: 100 µM
BXPC-3
  GI50: 7.51 µM
  LC50: 100 µM
  TGI: 52.1 µM
SK-HEP1
  GI50: 23.5 µM
  TGI: 100 µM
  CC50: 100 µM
HCT-116
  GI50: 12 µM
  TGI: 100 µM
  CC50: 100 µM
SF-268
  CC50: 100 µM
MIA PaCa-2
  GI50: 14.9 µM
  TGI: 100 µM
  CC50: 100 µM
NCI-H460
  GI50: 54.7 µM
  LC50 (concentration killing 50% of cells): 100 µM
  TGI: 100 µM
MCF7
  GI50: 22.3 µM
  TGI: 99.4 µM
  CC50: 100 µM
[2]
  pIC50: 5.80
[3]
  pIC50: 7.20
[4]
  Ratio IC50: 1.9

## c1ccc(C(c2ccc(N3CCOCC3)cc2)C23CC4CC(CC(C4)C2)C3)cc1 (stereo unspecified)
[1]
  pIC50: < 6.00
OVCAR-5
  TGI: 100 µM
  CC50: 100 µM
BXPC-3
  LC50: 100 µM
  TGI: 100 µM
HCT-116
  TGI: 100 µM
  CC50: 100 µM
SF-268
  CC50: 100 µM
NCI-H460
  LC50 (concentration killing 50% of cells): 100 µM
  TGI: 100 µM
MCF7
  TGI: 100 µM
  CC50: 100 µM
[2]
  pIC50: < 5.00
[3]
  pIC50: < 7.00

From ChEMBL document CHEMBL2021794, “Synthesis, σ₁, σ₂-receptors binding affinity and antiproliferative action of new C1-substituted adamantanes” (Bioorg Med Chem, 2012)
